Reference: ChEMBL document CHEMBL4507291 (2021)

Legend:
[1] = molecular target: Neuropeptide Y receptor type 1 (Homo sapiens) (UniProt P25929); test: Inhibition of Neuropeptide Y Y1 at 10 µM in the Eurofins-Panlabs radioligand binding assay (Eurofins_assay_257010); conditions: Compound concentration 10.0 uM
[2] = molecular target: Cyclin-dependent kinase 5/CDK5 activator 1 (Homo sapiens) (UniProt Q00535+Q15078); test: CDK5/p35 Kinase screen; assay type: protein-complex assay; conditions: Compound concentration 1.0 uM
Sequence of Cyclin-dependent kinase 5/CDK5 activator 1 (Homo sapiens) (Q00535 whole entry, the tested form may be a part): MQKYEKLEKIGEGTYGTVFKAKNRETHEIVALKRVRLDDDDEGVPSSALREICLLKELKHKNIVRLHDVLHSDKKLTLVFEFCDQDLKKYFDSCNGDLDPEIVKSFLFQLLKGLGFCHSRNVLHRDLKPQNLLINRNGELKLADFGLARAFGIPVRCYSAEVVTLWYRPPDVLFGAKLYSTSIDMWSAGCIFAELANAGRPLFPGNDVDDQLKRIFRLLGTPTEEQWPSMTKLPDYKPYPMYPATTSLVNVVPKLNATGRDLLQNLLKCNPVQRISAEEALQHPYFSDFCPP
Sequence of Cyclin-dependent kinase 5/CDK5 activator 1 (Homo sapiens) (Q15078 99-307 partner limits assumed): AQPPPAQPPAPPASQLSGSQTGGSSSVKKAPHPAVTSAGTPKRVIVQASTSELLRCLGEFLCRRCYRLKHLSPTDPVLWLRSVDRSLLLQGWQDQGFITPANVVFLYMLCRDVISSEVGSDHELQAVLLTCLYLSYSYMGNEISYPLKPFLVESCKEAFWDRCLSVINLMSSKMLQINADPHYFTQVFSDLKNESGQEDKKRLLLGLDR

[3] = molecular target: Epithelial discoidin domain-containing receptor 1 (Homo sapiens) (UniProt Q08345); test: DDR1 Kinase screen; conditions: Compound concentration 1.0 uM
[4] = test system: Epidermal growth factor receptor (Homo sapiens), P00533 [T790M]; test: EGFR (ErbB1) T790M Kinase screen; conditions: Compound concentration 1.0 uM
Sequence of Epidermal growth factor receptor (Homo sapiens), P00533 [T790M] (P00533 whole entry T790M): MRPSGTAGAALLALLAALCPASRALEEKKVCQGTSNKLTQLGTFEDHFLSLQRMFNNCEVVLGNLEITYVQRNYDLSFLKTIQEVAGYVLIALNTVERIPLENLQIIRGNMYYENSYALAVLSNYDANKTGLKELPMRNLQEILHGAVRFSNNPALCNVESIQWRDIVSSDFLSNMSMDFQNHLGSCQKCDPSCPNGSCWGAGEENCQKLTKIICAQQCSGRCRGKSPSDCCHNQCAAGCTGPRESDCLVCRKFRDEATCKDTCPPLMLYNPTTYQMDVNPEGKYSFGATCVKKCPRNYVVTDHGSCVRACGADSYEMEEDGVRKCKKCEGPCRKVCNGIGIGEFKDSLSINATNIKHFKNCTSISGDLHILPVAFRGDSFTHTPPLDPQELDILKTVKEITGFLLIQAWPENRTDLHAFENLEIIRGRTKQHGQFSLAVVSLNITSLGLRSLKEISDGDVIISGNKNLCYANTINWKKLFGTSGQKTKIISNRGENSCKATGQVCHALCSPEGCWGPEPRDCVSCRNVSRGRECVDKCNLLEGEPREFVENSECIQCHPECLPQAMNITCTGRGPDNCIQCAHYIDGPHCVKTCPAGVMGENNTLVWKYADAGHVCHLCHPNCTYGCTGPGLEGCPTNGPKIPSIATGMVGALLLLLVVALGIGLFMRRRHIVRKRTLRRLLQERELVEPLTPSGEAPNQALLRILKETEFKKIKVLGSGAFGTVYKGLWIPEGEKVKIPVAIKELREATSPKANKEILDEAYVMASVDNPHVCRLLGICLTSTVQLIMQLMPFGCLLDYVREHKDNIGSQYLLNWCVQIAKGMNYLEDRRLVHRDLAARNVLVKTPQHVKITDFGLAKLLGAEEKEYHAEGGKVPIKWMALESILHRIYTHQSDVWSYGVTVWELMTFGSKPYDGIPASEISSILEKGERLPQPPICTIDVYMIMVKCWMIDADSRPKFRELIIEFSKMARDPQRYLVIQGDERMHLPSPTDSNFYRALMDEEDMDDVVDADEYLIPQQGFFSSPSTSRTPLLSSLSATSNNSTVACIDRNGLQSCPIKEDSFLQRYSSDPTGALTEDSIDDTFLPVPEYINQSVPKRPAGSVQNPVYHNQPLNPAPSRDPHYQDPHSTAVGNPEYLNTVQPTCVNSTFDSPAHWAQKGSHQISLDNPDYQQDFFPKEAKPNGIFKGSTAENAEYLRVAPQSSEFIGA

[5] = molecular target: T1, Ephrin type-A receptor 3 (Homo sapiens) (UniProt P29320); test: EPHA3 Kinase screen; conditions: Compound concentration 1.0 uM
T1 sequence (whole entry): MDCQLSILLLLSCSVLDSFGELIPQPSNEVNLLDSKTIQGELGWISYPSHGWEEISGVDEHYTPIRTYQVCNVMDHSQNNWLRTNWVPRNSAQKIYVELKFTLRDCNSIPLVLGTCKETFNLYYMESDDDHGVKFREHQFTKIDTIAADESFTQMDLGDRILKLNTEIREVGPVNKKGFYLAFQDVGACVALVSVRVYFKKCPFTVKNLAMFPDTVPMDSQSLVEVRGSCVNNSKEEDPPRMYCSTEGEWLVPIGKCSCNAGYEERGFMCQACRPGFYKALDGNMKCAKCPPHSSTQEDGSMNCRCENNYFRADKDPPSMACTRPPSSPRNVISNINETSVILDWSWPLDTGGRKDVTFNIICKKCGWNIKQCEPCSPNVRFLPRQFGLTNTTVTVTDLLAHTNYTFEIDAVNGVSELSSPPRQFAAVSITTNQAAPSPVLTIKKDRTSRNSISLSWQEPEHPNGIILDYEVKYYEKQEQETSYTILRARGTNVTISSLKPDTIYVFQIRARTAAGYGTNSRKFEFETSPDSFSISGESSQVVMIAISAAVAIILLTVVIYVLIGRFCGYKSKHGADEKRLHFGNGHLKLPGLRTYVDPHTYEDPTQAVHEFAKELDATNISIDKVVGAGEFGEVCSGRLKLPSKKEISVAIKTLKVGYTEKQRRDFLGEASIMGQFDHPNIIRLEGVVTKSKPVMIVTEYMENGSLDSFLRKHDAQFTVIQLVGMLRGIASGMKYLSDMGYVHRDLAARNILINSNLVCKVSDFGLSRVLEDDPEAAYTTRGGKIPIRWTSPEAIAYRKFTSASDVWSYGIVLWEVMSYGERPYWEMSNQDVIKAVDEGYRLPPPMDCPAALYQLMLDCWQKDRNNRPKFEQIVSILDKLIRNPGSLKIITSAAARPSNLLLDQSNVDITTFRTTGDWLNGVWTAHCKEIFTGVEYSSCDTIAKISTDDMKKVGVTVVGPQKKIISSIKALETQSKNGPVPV

[6] = molecular target: Hepatocyte growth factor receptor (Homo sapiens) (UniProt P08581); test: MET (cMet) Kinase screen; conditions: Compound concentration 1.0 uM
[7] = molecular target: Serine/threonine-protein kinase PAK 5 (Homo sapiens) (UniProt Q9P286); test: PAK7 (KIAA1264) Kinase screen; conditions: Compound concentration 1.0 uM
[8] = molecular target: Serine/threonine-protein kinase N1 (Homo sapiens) (UniProt Q16512); test: PKN1 (PRK1) Kinase screen; conditions: Compound concentration 1.0 uM
[9] = molecular target: Protein kinase C alpha type (Homo sapiens) (UniProt P17252); test: PRKCA (PKC alpha) Kinase screen; conditions: Compound concentration 1.0 uM
[10] = molecular target: T2, Serine/threonine-protein kinase D2 (Homo sapiens) (UniProt Q9BZL6); test: PRKD2 (PKD2) Kinase screen; conditions: Compound concentration 1.0 uM
T2 sequence (whole entry): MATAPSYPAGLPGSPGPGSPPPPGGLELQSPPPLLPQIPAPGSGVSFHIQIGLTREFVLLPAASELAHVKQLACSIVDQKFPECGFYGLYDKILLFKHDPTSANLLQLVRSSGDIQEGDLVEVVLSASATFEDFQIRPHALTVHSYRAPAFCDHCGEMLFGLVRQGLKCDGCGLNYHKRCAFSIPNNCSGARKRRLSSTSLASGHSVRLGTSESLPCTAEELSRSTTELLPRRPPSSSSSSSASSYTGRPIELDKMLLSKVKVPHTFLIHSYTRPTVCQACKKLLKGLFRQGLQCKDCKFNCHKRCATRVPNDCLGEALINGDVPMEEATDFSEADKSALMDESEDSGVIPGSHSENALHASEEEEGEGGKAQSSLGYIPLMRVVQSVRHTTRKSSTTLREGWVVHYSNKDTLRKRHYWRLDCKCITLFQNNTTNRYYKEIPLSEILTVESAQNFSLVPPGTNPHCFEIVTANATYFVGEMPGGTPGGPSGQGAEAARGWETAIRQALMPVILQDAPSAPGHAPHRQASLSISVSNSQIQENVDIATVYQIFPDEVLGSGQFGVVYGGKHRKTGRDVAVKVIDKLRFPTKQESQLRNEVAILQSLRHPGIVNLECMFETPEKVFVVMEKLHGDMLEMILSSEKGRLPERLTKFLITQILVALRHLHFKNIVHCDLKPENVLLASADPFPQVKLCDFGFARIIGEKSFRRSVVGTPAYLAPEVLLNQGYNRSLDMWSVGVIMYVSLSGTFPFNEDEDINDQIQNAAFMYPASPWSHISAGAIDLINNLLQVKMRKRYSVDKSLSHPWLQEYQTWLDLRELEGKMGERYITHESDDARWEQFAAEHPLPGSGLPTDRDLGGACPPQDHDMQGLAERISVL

[11] = molecular target: Proto-oncogene tyrosine-protein kinase ROS (Homo sapiens) (UniProt P08922); test: ROS1 Kinase screen; conditions: Compound concentration 1.0 uM
Sequence of Proto-oncogene tyrosine-protein kinase ROS (Homo sapiens) (P08922 whole entry): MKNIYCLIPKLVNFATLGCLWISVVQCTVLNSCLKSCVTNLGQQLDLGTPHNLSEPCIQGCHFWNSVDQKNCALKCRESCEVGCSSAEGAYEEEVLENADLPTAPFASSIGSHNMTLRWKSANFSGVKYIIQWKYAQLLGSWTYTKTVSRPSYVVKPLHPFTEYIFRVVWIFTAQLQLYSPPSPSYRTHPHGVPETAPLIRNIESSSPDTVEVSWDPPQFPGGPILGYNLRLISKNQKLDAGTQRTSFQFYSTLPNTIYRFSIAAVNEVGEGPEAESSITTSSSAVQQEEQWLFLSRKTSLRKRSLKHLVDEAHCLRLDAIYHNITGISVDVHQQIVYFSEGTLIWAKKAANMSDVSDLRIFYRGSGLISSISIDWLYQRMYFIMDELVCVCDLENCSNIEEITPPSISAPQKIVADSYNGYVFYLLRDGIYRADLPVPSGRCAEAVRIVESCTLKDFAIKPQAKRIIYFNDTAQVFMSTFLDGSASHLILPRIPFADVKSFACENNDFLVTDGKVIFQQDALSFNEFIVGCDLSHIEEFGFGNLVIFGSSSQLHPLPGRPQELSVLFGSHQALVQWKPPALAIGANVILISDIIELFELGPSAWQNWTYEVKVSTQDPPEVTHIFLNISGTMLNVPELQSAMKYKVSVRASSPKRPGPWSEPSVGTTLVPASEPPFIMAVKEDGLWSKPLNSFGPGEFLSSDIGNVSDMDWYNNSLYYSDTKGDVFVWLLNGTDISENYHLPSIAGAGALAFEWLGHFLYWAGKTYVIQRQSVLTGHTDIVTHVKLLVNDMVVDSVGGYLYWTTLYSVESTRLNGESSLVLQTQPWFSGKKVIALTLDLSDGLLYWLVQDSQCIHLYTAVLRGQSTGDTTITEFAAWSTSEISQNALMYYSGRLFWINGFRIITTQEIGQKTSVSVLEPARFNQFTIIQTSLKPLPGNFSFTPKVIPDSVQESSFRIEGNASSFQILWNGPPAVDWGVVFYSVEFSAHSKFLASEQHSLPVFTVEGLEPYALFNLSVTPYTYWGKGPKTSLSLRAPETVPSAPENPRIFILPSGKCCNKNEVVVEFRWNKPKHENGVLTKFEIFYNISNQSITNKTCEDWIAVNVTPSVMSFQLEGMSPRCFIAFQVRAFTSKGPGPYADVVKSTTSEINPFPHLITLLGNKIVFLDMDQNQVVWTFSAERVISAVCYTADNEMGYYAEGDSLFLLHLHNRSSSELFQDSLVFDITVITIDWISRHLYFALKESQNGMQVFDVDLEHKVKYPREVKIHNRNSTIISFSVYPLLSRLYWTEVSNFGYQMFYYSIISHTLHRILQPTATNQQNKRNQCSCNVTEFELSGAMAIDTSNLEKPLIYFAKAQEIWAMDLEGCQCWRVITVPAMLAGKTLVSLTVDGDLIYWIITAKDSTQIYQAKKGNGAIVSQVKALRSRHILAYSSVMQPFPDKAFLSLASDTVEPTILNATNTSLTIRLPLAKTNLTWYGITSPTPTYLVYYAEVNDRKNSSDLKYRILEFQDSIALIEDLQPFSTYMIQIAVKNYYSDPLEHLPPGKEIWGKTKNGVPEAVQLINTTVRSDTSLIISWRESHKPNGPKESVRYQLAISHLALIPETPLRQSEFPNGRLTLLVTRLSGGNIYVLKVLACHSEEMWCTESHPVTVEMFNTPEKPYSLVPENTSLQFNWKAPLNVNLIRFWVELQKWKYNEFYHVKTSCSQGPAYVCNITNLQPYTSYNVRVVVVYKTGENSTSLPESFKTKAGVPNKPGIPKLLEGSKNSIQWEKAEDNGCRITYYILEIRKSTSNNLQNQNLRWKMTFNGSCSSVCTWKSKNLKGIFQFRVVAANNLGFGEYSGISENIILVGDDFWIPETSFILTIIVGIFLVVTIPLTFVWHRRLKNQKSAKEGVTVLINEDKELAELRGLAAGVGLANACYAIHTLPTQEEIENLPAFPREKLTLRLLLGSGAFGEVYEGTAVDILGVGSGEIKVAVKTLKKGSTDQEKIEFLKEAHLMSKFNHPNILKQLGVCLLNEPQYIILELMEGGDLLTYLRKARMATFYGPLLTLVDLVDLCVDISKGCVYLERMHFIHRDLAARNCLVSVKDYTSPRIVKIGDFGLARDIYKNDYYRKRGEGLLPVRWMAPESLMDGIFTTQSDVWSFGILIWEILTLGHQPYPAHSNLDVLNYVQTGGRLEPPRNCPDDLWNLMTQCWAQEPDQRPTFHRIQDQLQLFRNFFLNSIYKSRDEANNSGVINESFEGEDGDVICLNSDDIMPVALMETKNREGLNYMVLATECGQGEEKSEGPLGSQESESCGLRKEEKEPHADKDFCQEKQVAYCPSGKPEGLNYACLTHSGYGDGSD

Homo sapiens = species on record: Homo sapiens; test: Glutamate, Metabotropic, mGlu5 Eurofins-Panlabs radioligand binding assay; conditions: Compound concentration 10.0 uM

Measured: inhibition

C[C@@H]1CN(c2cc(-c3n[nH]c4ccc(OC5(C)CC5)cc34)ncn2)C[C@H](C)O1 [MLi-2]
inactive: [1] 0% | [2] -0.531% | [3] 0.893% | [4] 3.93% | [5] -3.28% | [6] 5.51% | [7] 5.96% | [8] 1.46% | [9] -4.08% | [10] 19% | [11] 2.52% | Homo sapiens 0%
